Measured values from paper PMC4321733 (Bioorganic & medicinal chemistry letters, 2014).

Target: PDE10A (Homo sapiens, UniProt Q9Y233)
Test: scintillation proximity assay
Conditions: ratio of IC50 values

PDE10A, sequence (Q9Y233 whole entry): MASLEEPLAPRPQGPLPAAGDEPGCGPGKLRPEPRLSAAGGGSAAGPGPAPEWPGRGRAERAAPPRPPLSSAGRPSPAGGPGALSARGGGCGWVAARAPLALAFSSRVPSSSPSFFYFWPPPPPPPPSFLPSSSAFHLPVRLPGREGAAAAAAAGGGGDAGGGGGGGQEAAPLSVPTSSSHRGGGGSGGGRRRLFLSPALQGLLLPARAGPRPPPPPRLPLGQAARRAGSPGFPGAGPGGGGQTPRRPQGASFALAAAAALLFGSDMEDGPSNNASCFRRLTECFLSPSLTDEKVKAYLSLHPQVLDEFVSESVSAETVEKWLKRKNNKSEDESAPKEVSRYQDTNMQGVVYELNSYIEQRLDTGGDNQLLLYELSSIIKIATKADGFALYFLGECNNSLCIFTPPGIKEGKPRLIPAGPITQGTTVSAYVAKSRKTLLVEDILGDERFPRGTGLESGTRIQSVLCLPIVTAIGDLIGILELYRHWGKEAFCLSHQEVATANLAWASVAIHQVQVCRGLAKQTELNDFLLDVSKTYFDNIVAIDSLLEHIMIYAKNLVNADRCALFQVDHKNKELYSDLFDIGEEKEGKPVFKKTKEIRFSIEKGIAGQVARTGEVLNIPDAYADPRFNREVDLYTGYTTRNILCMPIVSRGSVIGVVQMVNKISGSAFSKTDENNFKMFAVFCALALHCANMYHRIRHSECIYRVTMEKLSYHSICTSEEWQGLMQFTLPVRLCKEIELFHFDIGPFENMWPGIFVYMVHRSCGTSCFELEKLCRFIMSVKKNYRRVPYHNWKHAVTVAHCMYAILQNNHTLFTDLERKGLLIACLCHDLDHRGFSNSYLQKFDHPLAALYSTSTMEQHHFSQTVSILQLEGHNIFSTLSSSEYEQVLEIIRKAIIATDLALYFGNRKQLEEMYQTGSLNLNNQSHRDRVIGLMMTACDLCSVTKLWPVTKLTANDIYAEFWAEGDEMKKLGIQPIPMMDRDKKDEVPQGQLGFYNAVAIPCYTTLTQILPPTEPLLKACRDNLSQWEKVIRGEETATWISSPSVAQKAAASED

Structure (SMILES) | in vitro selectivity for PDE10A over PDE3A/3B, PDE4A/4B
COc1cc2nncc(-c3cnc(N4CCC(O)(c5cccnc5)CC4)c(C)c3)c2cc1OC [Compound 26a] | > 1,000 fold
COc1cc2nncc(-c3cnc(N4CCC(O)(c5ccc(F)nc5)CC4)c(C)c3)c2cc1OC [Compound 26b] | > 1,000 fold
Cn1c(C(=O)c2ccc(Oc3ncccc3-c3cccnc3)cc2)nc2ccccc21 [Compound 33c] | > 1,000 fold
